According to PMC9059924 (RSC Advances, 2019):

Columns and labels:
Assay type in all cases: cell-based, rat
primary cortical neurons = experiment: Viability of normal primary cortical neurons after administration; conditions: 100 μM; for Cell survival rate of primary neurons after administration: normal neurons, control 1.00, mean ± SE
[1] = test system: primary cortical neurons (OGD model); experiment: Cell viability of primary cortical neurons in oxygen glucose deprivation; conditions: for Improvement of survival rate of neuron (OGD 12 h), in words: P < 0.05 vs model; for Sample in 100 μM: cytotoxic at this concentration: footnote c; for Neuroprotective activity of BA compounds in OGD model, in words: text SAR; for Cell survival rate of primary neurons (OGD 12 h), Edaravone: positive drug 100 μM
[2] = test system: primary cortical neurons (OGD model); experiment: Morphology of OGD neurons under inverted microscope; conditions: OGD 12 h

Compound	Cell survival rate of primary neurons after administration (primary cortical neurons) [%]	Sample in 100 μM: cytotoxic at this concentration ([1]; BA compounds)	other results
CC1(C)C=Cc2cc(/C=C/C(=O)Oc3ccccc3)ccc2O1 [BN-05, (E)-3-(2,2-Dimethyl-2H-1-benzopyran-6-yl)-acrylate-phenyl ester]	0.86 ± 0.023		
CC1(C)C=Cc2cc(NC(=O)/C=C/c3ccccc3)ccc2O1 [BA-07, (E)-N-(2,2-Dimethyl-2H-1-benzopyran-6-yl)-3-phenylacrylamide]	0.78 ± 0.046	— ^c	Cytotoxicity to normal neurons (reduced cell survival rate), in words (primary cortical neurons): cytotoxic; Improvement of survival rate of neuron (OGD 12 h), in words ([1]; 1 μM): significantly improve the survival rate of neuron
COc1ccc(NC(=O)CC(Nc2ccc(OC)cc2)c2ccc3c(c2)C=CC(C)(C)O3)cc1 (stereo not drawn) [BN-09, 3-(2,2-Dimethyl-2H-1-benzopyran-6-yl)-N-(4-methoxyphenyl)-3-((4-methoxyphenyl)amino)propanamide]	0.80 ± 0.047		Sample in 100 μM: cytotoxic at this concentration ([1]; BN compounds): — ^c
CC1(C)C=Cc2cc(/C=C/C(=O)Nc3ccccc3)ccc2O1 [BN-01, (E)-3-(2,2-Dimethyl-2H-1-benzopyran-6-yl)-N-phenylacrylamide]	0.85 ± 0.038		
COc1ccc(/C=C/C(=O)Nc2ccc3c(c2)C=CC(C)(C)O3)cc1 [BA-06, (E)-N-(2,2-Dimethyl-2H-1-benzopyran-6-yl)-3-(4-methoxyphenyl)acrylamide]	0.86 ± 0.018		
CC1(C)C=Cc2cc(NC(=O)/C=C/c3ccc(O)cc3)ccc2O1 [BA-01, (E)-N-(2,2-Dimethyl-2H-1-benzopyran-6-yl)-3-(4-hydroxyphenyl)acrylamide]	0.75 ± 0.021	— ^c	Cytotoxicity to normal neurons (reduced cell survival rate), in words (primary cortical neurons): cytotoxic; Neuroprotective activity of BA compounds in OGD model, in words ([1]; OGD 12 h): the activity was decreased or disappeared
COc1ccc(N2CCN(C(=O)/C=C/c3ccc4c(c3)C=CC(C)(C)O4)CC2)cc1 [BN-06, (E)-3-(2,2-Dimethyl-2H-1-benzopyran-6-yl)-1-(4-(4-methoxyphenyl)piperazin-1-yl)prop-2-en-1-one]	0.91 ± 0.028		
CC1(C)C=Cc2cc(NC(=O)/C=C/c3cccc4ccccc34)ccc2O1 [BA-08, (E)-N-(2,2-Dimethyl-2H-1-benzopyran-6-yl)-3-(naphthalen-1-yl)acrylamide]	0.73 ± 0.025	— ^c	Improvement of survival rate of neuron (OGD 12 h), in words ([1]; 1 μM): significantly improve the survival rate of neuron
COc1ccccc1NC(=O)/C=C/c1ccc2c(c1)C=CC(C)(C)O2 [BN-04, (E)-3-(2,2-Dimethyl-2H-1-benzopyran-6-yl)-N-(2-methoxyphenyl)acrylamide]	0.88 ± 0.038		
CC1(C)C=Cc2cc(NC(=O)/C=C/c3cccs3)ccc2O1 [BA-11, (E)-N-(2,2-Dimethyl-2H-1-benzopyran-6-yl)-3-(thiophen-2-yl)acrylamide]	0.89 ± 0.054		Improvement of survival rate of neuron (OGD 12 h), in words ([1]; 1 μM): significantly improve the survival rate of neuron; Neuroprotective activity of BA compounds in OGD model, in words ([1]; OGD 12 h): maintained the same biological activity
CC1(C)C=Cc2cc(NC(=O)/C=C/c3ccco3)ccc2O1 [BA-10, (E)-N-(2,2-Dimethyl-2H-1-benzopyran-6-yl)-3-(furan-2-yl)acrylamide]	0.84 ± 0.026		Neuroprotective activity of BA compounds in OGD model, in words ([1]; OGD 12 h): lost neuroprotective effect
COc1cccc(NC(=O)/C=C/c2ccc3c(c2)C=CC(C)(C)O3)c1 [BN-03, (E)-3-(2,2-Dimethyl-2H-1-benzopyran-6-yl)-N-(3-methoxyphenyl)acrylamide]	0.89 ± 0.02		
5-methyl-2-phenyl-1,2-dihydropyrazol-3-one [Edaravone, reference compound]			Cell survival rate of primary neurons (OGD 12 h), Edaravone ([1]; BA table, model 0.49 ± 0.094, mean ± SE): 0.54 ± 0.0069 %; Cell survival rate of primary neurons (OGD 12 h), Edaravone ([1]; BN table, model 0.41 ± 0.014, mean ± SE): 0.56 ± 0.015 %
CC1(C)C=Cc2cc(C(CC(=O)Nc3ccccc3)Nc3ccccc3)ccc2O1 (stereo not drawn) [BN-08, 3-(2,2-Dimethyl-2H-1-benzopyran-6-yl)-N-phenyl-3-(phenylamino)propanamide]	0.99 ± 0.019		
CC1(C)C=Cc2cc(NC(=O)/C=C/c3cccnc3)ccc2O1 [BA-09, (E)-N-(2,2-Dimethyl-2H-1-benzopyran-6-yl)-3-(pyridin-3-yl)acrylamide]	0.49 ± 0.047	— ^c	Improvement of survival rate of neuron (OGD 12 h), in words ([1]; 1 μM): significantly improve the survival rate of neuron; Neuroprotective activity of BA compounds in OGD model, in words ([1]; OGD 12 h): maintained the same biological activity
COc1ccc(NC(=O)/C=C/c2ccc3c(c2)C=CC(C)(C)O3)cc1 [BN-02, (E)-3-(2,2-Dimethyl-2H-1-benzopyran-6-yl)-N-(4-methoxyphenyl)acrylamide]	0.93 ± 0.0080		
3-(2,2-Dimethyl-2H-1-benzopyran-6-yl)-N-(3-methoxyphenyl)-3-((3-methoxyphenyl)amino)propenamide [BN-10]	0.81 ± 0.058		Cell survival rate of primary neurons (OGD 12 h), Sample in 1 μM ([1]; BN compounds, 1 μM, model 0.41 ± 0.014, control 1.00, mean ± SE): 0.81 ± 0.0090 %; Cell survival rate of primary neurons (OGD 12 h), Sample in 30 μM ([1]; BN compounds, 30 μM, model 0.41 ± 0.014, control 1.00, mean ± SE): 0.77 ± 0.0035 %; Sample in 100 μM: cytotoxic at this concentration ([1]; BN compounds): — ^c
CC1(C)C=Cc2cc(NC(=O)/C=C/c3ccc4c(c3)OCO4)ccc2O1 [BA-05, (E)-N-(2,2-Dimethyl-2H-1-benzopyran-6-yl)-3-(1,3-benzodioxole-5-yl)acrylamide]	0.85 ± 0.037		
COc1ccc(/C=C/C(=O)Nc2ccc3c(c2)C=CC(C)(C)O3)cc1O [BA-03, (E)-N-(2,2-Dimethyl-2H-1-benzopyran-6-yl)-3-(3-hydroxy-4-methoxyphenyl)acrylamide]	0.77 ± 0.012	— ^c	Cytotoxicity to normal neurons (reduced cell survival rate), in words (primary cortical neurons): cytotoxic; Improvement of survival rate of neuron (OGD 12 h), in words ([1]; 1 μM): significantly improve the survival rate of neuron
CC1(C)C=Cc2cc(NC(=O)/C=C/c3ccc(O)c(O)c3)ccc2O1 [BA-04, (E)-N-(2,2-Dimethyl-2H-1-benzopyran-6-yl)-3-(3,4-dihydroxyphenyl)acrylamide]	0.56 ± 0.014	— ^c	Cytotoxicity to normal neurons (reduced cell survival rate), in words (primary cortical neurons): cytotoxic; Neuroprotective activity of BA compounds in OGD model, in words ([1]; OGD 12 h): the activity was decreased or disappeared
COc1cc(/C=C/C(=O)Nc2ccc3c(c2)C=CC(C)(C)O3)ccc1O [BA-02, (E)-N-(2,2-Dimethyl-2H-1-benzopyran-6-yl)-3-(4-hydroxy-3-methoxyphenyl)acrylamide]	0.76 ± 0.025	— ^c	Cytotoxicity to normal neurons (reduced cell survival rate), in words (primary cortical neurons): cytotoxic
CC1(C)C=Cc2cc(/C=C/C(=O)N3CCN(c4ccc(O)cc4)CC3)ccc2O1 [BN-07, (E)-3-(2,2-Dimethyl-2H-1-benzopyran-6-yl)-1-(4-(4-hydroxyphenyl)piperazin-1-yl)prop-2-en-1-one]	0.96 ± 0.0063		Neuroprotective effect of BN compounds on survival of OGD neurons, in words ([1]; OGD 12 h, compared with model group / edaravone): good efficacy in neurons of OGD model; Morphology of neurons induced by OGD, in words [2]: significantly improved the morphology of neurons
